Where two headings read alike, the source gives them in different places.
Key:
Type in all cases: cell-based
[1] = biological target: T1, alpha2A receptor (Homo sapiens, UniProt P08913); test: Receptor Selection and Amplification Technology (RSAT) assay, Alpha 2A; details: for Alpha 2A EC50: RSAT, transfected NIH-3T3 cells with Gq/i5, not active = at concentrations less than 10 micromolar; for Alpha 2A IA (intrinsic activity): ratio of maximal effect to that of standard full agonist brimonidine (UK14304)
T1 construct: expressed in transfected cells; host or cells: NIH-3T3 cells
T1 sequence (P08913 1-465): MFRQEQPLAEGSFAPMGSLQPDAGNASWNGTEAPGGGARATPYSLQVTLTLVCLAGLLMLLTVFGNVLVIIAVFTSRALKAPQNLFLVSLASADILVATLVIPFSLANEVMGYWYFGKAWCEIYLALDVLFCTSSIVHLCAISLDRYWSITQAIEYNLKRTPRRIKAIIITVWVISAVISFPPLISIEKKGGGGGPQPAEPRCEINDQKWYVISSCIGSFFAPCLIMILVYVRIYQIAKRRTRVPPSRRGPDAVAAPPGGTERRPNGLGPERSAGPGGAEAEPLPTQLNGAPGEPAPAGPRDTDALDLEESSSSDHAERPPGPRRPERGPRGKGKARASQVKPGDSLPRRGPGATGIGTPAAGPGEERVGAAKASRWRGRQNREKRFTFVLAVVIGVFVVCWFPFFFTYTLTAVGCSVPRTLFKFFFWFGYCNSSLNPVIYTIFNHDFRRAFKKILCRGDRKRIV
Description: (§1) Receptor Selection and Amplification Technology (RSAT) Assay
(§2) The RSAT assay measures a receptor-mediated loss of contact inhibition that results in selective proliferation of receptor-containing cells in a mixed population of confluent cells. The increase in cell number is assessed with an appropriate transfected marker gene such as β-galactosidase, the activity of which can be easily measured in a 96-well format. Receptors that activate the G protein, Gq, elicit this response. Alpha2 receptors, which normally couple to Gi, activate the RSAT response when coexpressed with a hybrid Gq protein that has a Gi receptor recognition domain, called Gq/i5.
(§3) NIH-3T3 cells are plated at a density of 2×10^6 cells in 15 cm dishes and maintained in Dulbecco's modified Eagle's medium supplemented with 10% calf serum. One day later, cells are cotransfected by calcium phosphate precipitation with mammalian expression plasmids encoding p-SV-β-galactosidase (5-10 μg), receptor (1-2 μg) and G protein (1-2 μg). 40 μg salmon sperm DNA may also be included in the transfection mixture. […] Cells are thawed and 100 μl added to 100 μl aliquots of various concentrations of drugs in triplicate in 96-well dishes. Incubations continue 72-96 hr at 37° C. After washing with phosphate-buffered saline, β-galactosidase enzyme activity is determined by adding 200 μl of the chromogenic substrate (consisting of 3.5 mM o-nitrophenyl-β-D-galactopyranoside and 0.5% nonidet P-40 in phosphate buffered saline), incubating overnight at 30° C. and measuring optical density at 420 nm. The absorbance is a measure of enzyme activity, which depends on cell number and reflects a receptor-mediated cell proliferation. The efficacy or intrinsic activity is calculated as a ratio of the maximal effect of the drug to the maximal effect of a standard full agonist for each receptor subtype. Brimonidine, also called UK14304, the chemical structure of which is shown below, is used as the standard agonist for the alpha2A, alpha2B and alpha2C receptors. The EC50 is the concentration at which the drug effect is half of its maximal effect.
(§4) EC50 values are nanomolar. NA stands for “not active” at concentrations less than 10 micromolar. IA stands for “intrinsic activity.”

[2] = biological target: T2, alpha2B receptor (Homo sapiens, UniProt P18089); test: Receptor Selection and Amplification Technology (RSAT) assay, Alpha 2B; details: for EC50: transfected NIH-3T3 cells with Gq/i5, not active = at concentrations less than 10 micromolar; for Alpha 2B IA (intrinsic activity): ratio of maximal effect to that of standard full agonist brimonidine (UK14304)
T2 construct: expressed in transfected cells; host or cells: NIH-3T3 cells
T2 sequence (P18089 1-450): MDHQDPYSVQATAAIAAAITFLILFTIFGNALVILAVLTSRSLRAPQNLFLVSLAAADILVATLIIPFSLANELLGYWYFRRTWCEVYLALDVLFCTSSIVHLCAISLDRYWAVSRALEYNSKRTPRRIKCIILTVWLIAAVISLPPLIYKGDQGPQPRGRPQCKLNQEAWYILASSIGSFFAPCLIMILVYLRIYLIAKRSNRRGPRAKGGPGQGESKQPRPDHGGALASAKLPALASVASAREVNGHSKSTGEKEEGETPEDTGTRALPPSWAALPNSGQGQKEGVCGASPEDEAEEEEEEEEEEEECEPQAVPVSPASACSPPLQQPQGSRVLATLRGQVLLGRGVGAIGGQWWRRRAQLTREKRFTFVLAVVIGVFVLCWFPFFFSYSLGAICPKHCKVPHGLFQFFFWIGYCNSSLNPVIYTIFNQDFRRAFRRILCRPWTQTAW
Description: as §1, §2
NIH-3T3 cells are plated at a density of 2×10^6 cells in 15 cm dishes and maintained in Dulbecco's modified Eagle's medium supplemented with 10% calf serum. One day later, cells are cotransfected by calcium phosphate precipitation with mammalian expression plasmids encoding p-SV-β-galactosidase (5-10 μg), receptor (1-2 μg) and G protein (1-2 μg). 40 μg salmon sperm DNA may also be included in the transfection mixture. Fresh media is added on the following day and 1-2 days later, cells are harvested and frozen in 50 assay aliquots. Cells are thawed and 100 μl added to 100 μl aliquots of various concentrations of drugs in triplicate in 96-well dishes. Incubations continue 72-96 hr at 37° C. After washing with phosphate-buffered saline, β-galactosidase enzyme activity is determined by adding 200 μl of the chromogenic substrate (consisting of 3.5 mM o-nitrophenyl-β-D-galactopyranoside and 0.5% nonidet P-40 in phosphate buffered saline), incubating overnight at 30° C. and measuring optical density at 420 nm. The absorbance is a measure of enzyme activity, which depends on cell number and reflects a receptor-mediated cell proliferation. The efficacy or intrinsic activity is calculated as a ratio of the maximal effect of the drug to the maximal effect of a standard full agonist for each receptor subtype. Brimonidine, also called UK14304, the chemical structure of which is shown below, is used as the standard agonist for the alpha2A, alpha2B and alpha2C receptors. The EC50 is the concentration at which the drug effect is half of its maximal effect.
The results of the RSAT assay with several exemplary compounds of the invention are disclosed in Table 1 above together with the chemical formulas of these exemplary compounds. EC50 values are nanomolar. NA stands for “not active” at concentrations less than 10 micromolar. IA stands for “intrinsic activity.”

[3] = biological target: T3, alpha2C receptor (Homo sapiens, UniProt P18825); test: Receptor Selection and Amplification Technology (RSAT) assay, Alpha 2C; details: for Alpha 2C IA (intrinsic activity): ratio of maximal effect to that of standard full agonist brimonidine (UK14304)
T3 construct: expressed in transfected cells; host or cells: NIH-3T3 cells
T3 sequence (P18825 1-462): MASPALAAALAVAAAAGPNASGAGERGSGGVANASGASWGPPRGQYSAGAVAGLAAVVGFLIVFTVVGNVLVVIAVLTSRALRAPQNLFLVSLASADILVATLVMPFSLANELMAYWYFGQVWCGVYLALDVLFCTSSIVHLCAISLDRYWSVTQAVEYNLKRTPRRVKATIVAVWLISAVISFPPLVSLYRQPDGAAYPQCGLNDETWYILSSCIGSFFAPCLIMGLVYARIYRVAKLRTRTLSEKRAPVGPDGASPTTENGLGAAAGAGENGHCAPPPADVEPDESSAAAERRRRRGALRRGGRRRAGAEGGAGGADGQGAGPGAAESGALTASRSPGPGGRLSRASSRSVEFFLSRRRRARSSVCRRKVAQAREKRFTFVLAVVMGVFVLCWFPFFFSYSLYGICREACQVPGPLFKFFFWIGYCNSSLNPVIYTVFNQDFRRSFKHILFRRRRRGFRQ
Description: as §1, §2, §3, §4

[4] = RSAT, transfected NIH-3T3 cells with Gq/i5, not active = at concentrations less than 10 micromolar, read-out: Alpha 2C EC50
[5] = RSAT, transfected NIH-3T3 cells with Gq/i5, not active = at concentrations less than 10 micromolar

Compound	Alpha 2A EC50 [1]	EC50 ([2]; RSAT, read-out: Alpha 2B EC50) [nM]	Alpha 2B IA (intrinsic activity) [2]	EC50 [3, 4] [nM]	Alpha 2C IA (intrinsic activity) [3]	Alpha 2C EC50 [3, 5]	EC50 [1] [nM]	Alpha 2A IA (intrinsic activity) [1]	EC50 ([2]; Alpha 2B EC50, RSAT) [nM]	EC50 [3] [nM]
O=C(NCCF)NC(Cc1ccccc1)c1ccccc1Cl (stereo not drawn) [1-[1-(2-chlorophenyl)-2-phenylethyl]-3-(2-fluoroethyl)urea]	not active	407	0.64	700	0.34	–	–	–	–	–
O=C(NCCF)NC(Cc1ccccc1)C1CCCCC1 (stereo not drawn) [1-(1-cyclohexyl-2-phenylethyl)-3-(2-fluoroethyl)urea]	not active	640	0.33	–	–	not active	–	–	–	–
O=C(NCCF)NC(Cc1ccccc1F)c1ccccc1 (stereo not drawn) [1-(2-fluoroethyl)-3-[2-(2-fluorophenyl)-1-phenylethyl]urea]	not active	12.9	0.96	–	–	not active	–	–	–	–
Cc1cccc(C(Cc2cccs2)NC(=O)NCCF)c1 (stereo not drawn) [1-(2-fluoro-ethyl)-3-(2-thiophen-2-yl-1-m-tolyl-ethyl)-urea]	not active	37	1.08	–	–	not active	–	–	–	–
Cc1cccc(C(Cc2ccncc2)NC(=O)NCCF)c1 (stereo not drawn) [1-(2-fluoro-ethyl)-3-(2-pyridin-4-yl-1-m-tolyl-ethyl)-urea]	–	–	1.1	–	–	not active	341	0.44	37.7	–
O=C(NCCF)NC(Cc1ccccc1)c1ccc(O)cc1 (stereo not drawn)	not active	146	0.82	–	–	not active	–	–	–	–
O=C(NCCF)NC(Cc1ccccc1)C1CCCC1 (stereo not drawn) [1-(1-cyclopentyl-2-phenylethyl)-3-(2-fluoroethyl)urea]	not active	378	0.6	–	–	not active	–	–	–	–
O=C(NCCF)NC(Cc1ccccc1Cl)c1ccccc1 (stereo not drawn)	not active	606	0.63	–	–	not active	–	–	–	–
O=C(NCCF)NC(Cc1ccccc1)c1cccs1 (stereo not drawn) [1-(2-fluoroethyl)-3-[2-phenyl-1-(2-thienyl)ethyl]urea]	–	–	0.99	–	0.35	–	346	0.35	28.5	119
O=C(NCCF)NC(Cc1ccccc1)c1cccc(Br)c1 (stereo not drawn) [1-[1-(3-Bromophenyl)-2-phenylethyl]-3-(2-fluoroethyl)urea]	not active	173	0.86	–	–	not active	–	–	–	–
O=C(NCCF)NC(Cc1cccc(F)c1)c1cccnc1 (stereo not drawn) [1-(2-fluoro-ethyl)-3-[2-(3-fluoro-phenyl)-1-pyridin-3-yl-ethyl]-urea]	not active	1990	0.41	–	–	not active	–	–	–	–
O=C(NCCF)NC(Cc1ccc(F)cc1)c1cccnc1 (stereo not drawn) [1-(2-fluoro-ethyl)-3-[2-(4-fluoro-phenyl)-1-pyridin-3-yl-ethyl]-urea]	not active	2780	0.49	–	–	not active	–	–	–	–
Cc1cccc(C(Cc2cccnc2)NC(=O)NCCF)c1 (stereo not drawn) [1-(2-fluoro-ethyl)-3-(2-pyridin-3-yl-1-m-tolyl-ethyl)-urea]	not active	53.2	0.95	–	–	not active	–	–	–	–
O=C(NCCF)NC(Cc1ccccc1)c1ccc(Cl)cc1 (stereo not drawn)	not active	177	0.55	–	–	not active	–	–	–	–
O=C(NCCF)NC(Cc1ccc(F)c(F)c1)c1ccncc1 (stereo not drawn) [1-[2-(3,4-difluoro-phenyl)-1-pyridin-4-yl-ethyl]-3-(2-fluoro-ethyl)-urea]	not active	3620	0.44	–	–	not active	–	–	–	–
COc1ccccc1C(Cc1ccccc1)NC(=O)NCCF (stereo not drawn) [1-(2-fluoroethyl)-3-[1-(2-methoxyphenyl)-2-phenylethyl]urea]	not active	51.2	0.88	78.9	0.42	–	–	–	–	–
O=C(NCCF)NC(Cc1ccccc1)c1cccc(Cl)c1F (stereo not drawn) [1-[1-(3-chloro-2-fluorophenyl)-2-phenylethyl]-3-(2-fluoroethyl)urea]	not active	138	1.0	–	–	not active	–	–	–	–
O=C(NCCF)NC(Cc1ccccc1)c1ccccc1 (stereo not drawn) [1-(1,2-diphenyl-ethyl)-3-(2-fluoro-ethyl)-urea]	not active	–	0.96	–	0.32	–	–	–	33.8	345

Source: patent US7709507B2 (Allergan, Inc., priority 2006, dated 2010)
